Assay results as given in PubChem BioAssay (NCI).
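Dose response: 5 concentrations. Exposure: 48 h. Format: 96-well plates. Endpoint: linear interpolation; highest concentration if not reached. Definition used: TGI = concentration required for complete inhibition of growth.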

Tests used:
Assay in all cases: NCI tumour cell line growth inhibition, 48 h
UACC-257 melanoma = system: UACC-257 melanoma
HOP-62 NSCLC = system: HOP-62 NSCLC
MDA-N = system: MDA-N
SF-268 CNS = system: SF-268 CNS
MOLT-4 leukemia = system: MOLT-4 leukemia
SF-539 CNS = system: SF-539 CNS
786-0 renal = system: 786-0 renal
OVCAR-4 ovarian = system: OVCAR-4 ovarian
NCI-H460 lung = system: NCI-H460 lung
SW-620 colon = system: SW-620 colon
HCT-116 colon = system: HCT-116 colon
IGROV1 ovarian = system: IGROV1 ovarian
SK-MEL-28 melanoma = system: SK-MEL-28 melanoma
SK-MEL-5 melanoma = system: SK-MEL-5 melanoma
CAKI-1 renal = system: CAKI-1 renal
A549 NSCLC = system: A549 NSCLC
NCI-H226 lung = system: NCI-H226 lung
HT29 colon = system: HT29 colon
SN12C renal = system: SN12C renal
MCF7 breast = system: MCF7 breast
M14 melanoma = system: M14 melanoma
LOX IMVI melanoma = system: LOX IMVI melanoma
HCT-15 colon = system: HCT-15 colon
HOP-92 NSCLC = system: HOP-92 NSCLC
KM12 colon = system: KM12 colon
OVCAR-5 ovarian = system: OVCAR-5 ovarian
NCI-H522 lung = system: NCI-H522 lung
A498 renal = system: A498 renal
BT-549 breast = system: BT-549 breast
SF-295 CNS = system: SF-295 CNS
K-562 leukemia = system: K-562 leukemia
SK-MEL-2 melanoma = system: SK-MEL-2 melanoma
T-47D breast = system: T-47D breast
MDA-MB-231 breast = system: MDA-MB-231 breast
SR leukemia = system: SR leukemia
PC-3 prostate = system: PC-3 prostate
SK-OV-3 ovarian = system: SK-OV-3 ovarian
SNB-75 CNS = system: SNB-75 CNS
UACC-62 melanoma = system: UACC-62 melanoma
MDA-MB-435 = system: MDA-MB-435
U251 CNS = system: U251 CNS
OVCAR-8 ovarian = system: OVCAR-8 ovarian
RXF 393 renal = system: RXF 393 renal
UO-31 renal = system: UO-31 renal
NCI-H23 lung = system: NCI-H23 lung
HL-60(TB) leukemia = system: HL-60(TB) leukemia
MALME-3M melanoma = system: MALME-3M melanoma
SNB-19 CNS = system: SNB-19 CNS
DU-145 prostate = system: DU-145 prostate
HS 578T breast = system: HS 578T breast
TK-10 renal = system: TK-10 renal
COLO 205 colon = system: COLO 205 colon
RPMI-8226 leukemia = system: RPMI-8226 leukemia
OVCAR-3 ovarian = system: OVCAR-3 ovarian
NCI/ADR-RES ovarian = system: NCI/ADR-RES ovarian
HCC-2998 colon = system: HCC-2998 colon
EKVX NSCLC = system: EKVX NSCLC
CCRF-CEM leukemia = system: CCRF-CEM leukemia
ACHN renal = system: ACHN renal

Question: Which TGI (UACC-257 melanoma) does the source give for `O=C(CCc1ccccc1)NCCc1ccc(O)c(O)c1` here?
Answer: > 100 µM

Question: What about the TGI (HOP-62 NSCLC) of the same compound?
Answer: 97.3 µM

Question: And the TGI (MDA-N)?
Answer: 28.5 µM

Question: And the TGI (SF-268 CNS)?
Answer: > 100 µM

Question: What about the TGI (MOLT-4 leukemia) of the same compound?
Answer: > 89.4 µM

Question: And the TGI (SF-539 CNS)?
Answer: > 87.5 µM

Question: What about the TGI (786-0 renal) of the same compound?
Answer: > 82.2 µM

Question: And the TGI (OVCAR-4 ovarian)?
Answer: 46.7 µM

Question: And the TGI (NCI-H460 lung)?
Answer: > 100 µM

Question: What about the TGI (SW-620 colon) of the same compound?
Answer: > 100 µM

Question: What about the TGI (HCT-116 colon) of the same compound?
Answer: > 66.7 µM

Question: And the TGI (IGROV1 ovarian)?
Answer: > 100 µM

Question: What about the TGI (SK-MEL-28 melanoma) of the same compound?
Answer: > 100 µM

Question: And the TGI (SK-MEL-5 melanoma)?
Answer: > 50.6 µM

Question: What about the TGI (CAKI-1 renal) of the same compound?
Answer: 29.4 µM

Question: What about the TGI (A549 NSCLC) of the same compound?
Answer: > 100 µM

Question: What about the TGI (NCI-H226 lung) of the same compound?
Answer: > 100 µM

Question: What about the TGI (HT29 colon) of the same compound?
Answer: > 69.3 µM

Question: And the TGI (SN12C renal)?
Answer: > 69.5 µM

Question: What about the TGI (MCF7 breast) of the same compound?
Answer: 93.9 µM

Question: And the TGI (M14 melanoma)?
Answer: > 100 µM

Question: What about the TGI (LOX IMVI melanoma) of the same compound?
Answer: > 100 µM

Question: What about the TGI (HCT-15 colon) of the same compound?
Answer: > 100 µM

Question: What about the TGI (HOP-92 NSCLC) of the same compound?
Answer: > 78.7 µM

Question: What about the TGI (KM12 colon) of the same compound?
Answer: > 94.4 µM

Question: What about the TGI (OVCAR-5 ovarian) of the same compound?
Answer: > 31.6 µM

Question: And the TGI (NCI-H522 lung)?
Answer: 44 µM

Question: And the TGI (A498 renal)?
Answer: > 100 µM

Question: And the TGI (BT-549 breast)?
Answer: > 49.8 µM

Question: And the TGI (SF-295 CNS)?
Answer: > 94.9 µM

Question: What about the TGI (K-562 leukemia) of the same compound?
Answer: 22.4 µM

Question: And the TGI (SK-MEL-2 melanoma)?
Answer: 49.5 µM

Question: And the TGI (T-47D breast)?
Answer: > 100 µM

Question: And the TGI (MDA-MB-231 breast)?
Answer: > 72.3 µM

Question: What about the TGI (SR leukemia) of the same compound?
Answer: > 77.3 µM

Question: And the TGI (PC-3 prostate)?
Answer: > 61.2 µM

Question: What about the TGI (SK-OV-3 ovarian) of the same compound?
Answer: > 100 µM

Question: And the TGI (SNB-75 CNS)?
Answer: > 100 µM

Question: And the TGI (UACC-62 melanoma)?
Answer: > 100 µM

Question: What about the TGI (MDA-MB-435) of the same compound?
Answer: 29.4 µM

Question: And the TGI (U251 CNS)?
Answer: > 100 µM

Question: And the TGI (OVCAR-8 ovarian)?
Answer: > 85.6 µM

Question: And the TGI (RXF 393 renal)?
Answer: > 100 µM

Question: What about the TGI (UO-31 renal) of the same compound?
Answer: 49.2 µM

Question: And the TGI (NCI-H23 lung)?
Answer: > 100 µM

Question: And the TGI (HL-60(TB) leukemia)?
Answer: 14.3 µM

Question: What about the TGI (MALME-3M melanoma) of the same compound?
Answer: > 100 µM

Question: What about the TGI (SNB-19 CNS) of the same compound?
Answer: > 100 µM

Question: And the TGI (DU-145 prostate)?
Answer: > 100 µM

Question: What about the TGI (HS 578T breast) of the same compound?
Answer: > 100 µM

Question: What about the TGI (TK-10 renal) of the same compound?
Answer: > 100 µM

Question: What about the TGI (COLO 205 colon) of the same compound?
Answer: 58.5 µM

Question: And the TGI (RPMI-8226 leukemia)?
Answer: 59.4 µM

Question: What about the TGI (OVCAR-3 ovarian) of the same compound?
Answer: > 89 µM

Question: And the TGI (NCI/ADR-RES ovarian)?
Answer: > 100 µM

Question: What about the TGI (HCC-2998 colon) of the same compound?
Answer: > 100 µM

Question: What about the TGI (EKVX NSCLC) of the same compound?
Answer: > 100 µM

Question: What about the TGI (CCRF-CEM leukemia) of the same compound?
Answer: 27.1 µM

Question: What about the TGI (ACHN renal) of the same compound?
Answer: > 100 µM
